The results in this text go back to patent publication US8263606B2 (Xenon Pharmaceuticals Inc., priority 2008, dated 2012).

Series [1] has as its target CYP3A4 (Homo sapiens, UniProt P08684). Kind of series: Cytochrome P450 (CYP450) Inhibition Assay, CYP3A4 (Vivid fluorescence, BOMCC substrate). The conditions noted are these: human, P450 Baculosomes (recombinant CYP3A4), probe BOMCC (Vivid substrate).

Sequence of CYP3A4 (P08684 whole entry): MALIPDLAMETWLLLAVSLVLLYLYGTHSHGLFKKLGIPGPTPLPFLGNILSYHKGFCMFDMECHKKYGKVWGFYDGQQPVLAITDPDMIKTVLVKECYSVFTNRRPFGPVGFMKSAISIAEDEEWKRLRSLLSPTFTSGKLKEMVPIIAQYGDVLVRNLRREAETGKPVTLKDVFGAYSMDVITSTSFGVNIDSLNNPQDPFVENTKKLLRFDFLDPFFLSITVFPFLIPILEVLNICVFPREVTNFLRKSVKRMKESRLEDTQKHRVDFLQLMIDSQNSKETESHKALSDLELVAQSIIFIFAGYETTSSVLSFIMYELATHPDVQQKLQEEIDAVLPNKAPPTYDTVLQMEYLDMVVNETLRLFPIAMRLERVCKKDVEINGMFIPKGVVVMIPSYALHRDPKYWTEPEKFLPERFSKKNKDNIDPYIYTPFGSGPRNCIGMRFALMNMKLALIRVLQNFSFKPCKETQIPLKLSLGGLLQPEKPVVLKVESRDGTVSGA

Consider `CN1C(=O)C2(COc3cc4c(cc32)OCCO4)c2c(C(=O)N3CCCC3)cccc21` (centres unmarked) [Example 16.41, 1′-methyl-4′-(pyrrolidin-1-ylcarbonyl)-2,3-dihydrospiro[furo[2,3-g][1,4]benzodioxine-8,3′-indol]-2′(1′H)-one], for which the melting point was 242 to 244 °C. Moreover, in series [1], the inhibition at 10 µM is < 50%.
For `CCCCCNC(=O)c1cccc2c1C1(COc3cc4c(cc31)OCCO4)C(=O)N2C` (centres unmarked) [Example 16.42, 1′-methyl-2′-oxo-N-pentyl-1′,2,2′,3-tetrahydrospiro[furo[2,3-g][1,4]benzodioxine-8,3′-indole]-4′-carboxamide], in that order: 191 to 193 °C and < 50%.
For `COCCNC(=O)c1cccc2c1C1(COc3cc4c(cc31)OCCO4)C(=O)N2C` (centres unmarked) [Example 16.43, N-(2-methoxyethyl)-1′-methyl-2′-oxo-1′,2,2′,3-tetrahydrospiro[furo[2,3-g][1,4]benzodioxine-8,3′-indole]-4′-carboxamide], the melting point was in the range of 97 to 100 °C. For the same compound, the inhibition at 10 µM in series [1] was < 50%.
For `CN1C(=O)C2(COc3cc4c(cc32)OCCO4)c2c(C(=O)NCc3ccc(F)cc3)cccc21` (centres unmarked) [Example 16.44, N-(4-fluorobenzyl)-1′-methyl-2′-oxo-1′,2,2′,3-tetrahydrospiro[furo[2,3-g][1,4]benzodioxine-8,3′-indole]-4′-carboxamide], in that order: 149 to 150 °C and < 50%.
For `CCCCCCNC(=O)c1cccc2c1C1(COc3cc4c(cc31)OCCO4)C(=O)N2C` (centres unmarked) [Example 16.45, N-hexyl-1′-methyl-2′-oxo-1′,2,2′,3-tetrahydrospiro[furo[2,3-g][1,4]benzodioxine-8,3′-indole]-4′-carboxamide], in that order: 172 to 173 °C and > 50%.
For `CN1C(=O)C2(COc3cc4c(cc32)OCCO4)c2c(C(=O)NCc3ccccn3)cccc21` (centres unmarked) [Example 16.46, 1′-methyl-2′-oxo-N-(pyridin-2-ylmethyl)-1′,2,2′,3-tetrahydrospiro[furo[2,3-g][1,4]benzodioxine-8,3′-indole]-4′-carboxamide], in that order: 214 to 215 °C and < 50%.
As for `CN1C(=O)C2(COc3cc4c(cc32)OCCO4)c2c(C(=O)Nc3ccc(F)cc3)cccc21` (centres unmarked) [Example 16.47, N-(4-fluorophenyl)-1′-methyl-2′-oxo-1′,2,2′,3-tetrahydrospiro[furo[2,3-g][1,4]benzodioxine-8,3′-indole]-4′-carboxamide], the melting point is > 250 °C. In addition, the inhibition at 10 µM in series [1] is < 50%.
Taken in the same sequence, the figures for `Nc1cccc2c1C1(COc3cc4c(cc31)OCCO4)C(=O)N2Cc1ncccc1C(F)(F)F` (centres unmarked) [Example 16.50, 4′-amino-1′-{[3-(trifluoromethyl)pyridin-2-yl]methyl}-2,3-dihydrospiro[furo[2,3-g][1,4]benzodioxine-8,3′-indol]-2′(1′H)-one] were 243 to 245 °C and < 50%.
`O=C1Nc2cccc(O)c2C12COc1cc3c(cc12)OCCO3` (centres unmarked) [Example 16.51, 4′-hydroxy-2,3-dihydrospiro[furo[2,3-g][1,4]benzodioxine-8,3′-indol]-2′(1′H)-one]: the melting point is > 250 °C. The inhibition at 10 µM in series [1] was < 50%.
`CN1C(=O)C2(COc3cc4c(cc32)OCCO4)c2c(O)cccc21` (centres unmarked) [Example 16.52, 4′-hydroxy-1′-methyl-2,3-dihydrospiro[furo[2,3-g][1,4]benzodioxine-8,3′-indol]-2′(1′H)-one]: the melting point was > 250 °C. For the same compound, the inhibition at 10 µM in series [1] is < 50%.
Compound `CN1C(=O)C2(COc3cc4c(cc32)OCCO4)c2c(Oc3ccccn3)cccc21` (centres unmarked) [Example 16.53, 1′-methyl-4′-(pyridin-2-yloxy)-2,3-dihydrospiro[furo[2,3-g][1,4]benzodioxine-8,3′-indol]-2′(1′H)-one] came in with a melting point of 219 to 221 °C. The inhibition at 10 µM in series [1] is > 50%.
For `COCCOCCOc1cccc2c1C1(COc3cc4c(cc31)OCCO4)C(=O)N2C` (centres unmarked) [Example 16.54, 4′-[2-(2-methoxyethoxy)ethoxy]-1′-methyl-2,3-dihydrospiro[furo[2,3-g][1,4]benzodioxine-8,3′-indol]-2′(1′H)-one], in that order: 109 to 110 °C and < 50%.
Taken in the same sequence, the figures for `CN1C(=O)C2(COc3cc4c(cc32)OCCO4)c2c(Oc3ncccc3C(F)(F)F)cccc21` (centres unmarked) [Example 16.55, 1′-methyl-4′-{[3-(trifluoromethyl)pyridin-2-yl]oxy}-2,3-dihydrospiro[furo[2,3-g][1,4]benzodioxine-8,3′-indol]-2′(1′H)-one] were > 250 °C and > 50%.
Compound `CN1C(=O)C2(COc3cc4c(cc32)OCCO4)c2c(Oc3ccc(C(F)(F)F)cc3)cccc21` (centres unmarked) [Example 16.56, 1′-methyl-4′-[4-(trifluoromethyl)phenoxy]-2,3-dihydrospiro[furo[2,3-g][1,4]benzodioxine-8,3′-indol]-2′(1′H)-one] yielded a melting point of 198 to 201 °C. Further, the inhibition at 10 µM in series [1] is > 50%.
Taken in the same sequence, the figures for `CN1C(=O)C2(COc3cc4c(cc32)OCCO4)c2c(OCc3ccccc3)cccc21` (centres unmarked) [Example 16.57, 4′-(benzyloxy)-1′-methyl-2,3-dihydrospiro[furo[2,3-g][1,4]benzodioxine-8,3′-indol]-2′(1′H)-one] were 198 to 200 °C and > 50%.
Taken in the same sequence, the figures for `CN1C(=O)C2(COc3cc4c(cc32)OCCO4)c2c(OCc3ncccc3C(F)(F)F)cccc21` (centres unmarked) [Example 16.58, 1′-methyl-4′-{[3-(trifluoromethyl)pyridin-2-yl]methoxy}-2,3-dihydrospiro[furo[2,3-g][1,4]benzodioxine-8,3′-indol]-2′(1′H)-one] were 157 to 159 °C and > 50%.
For `CN1C(=O)[C@@]2(COc3cc4c(cc32)OCO4)c2c(Br)cccc21` [Example 16.63, (7R)-4′-bromo-1′-methylspiro[furo[2,3-f][1,3]benzodioxole-7,3′-indol]-2′(1′H)-one], in that order: 226 to 228 °C and > 50%.
Compound `CN1C(=O)[C@]2(COc3cc4c(cc32)OCO4)c2c(Br)cccc21` [Example 16.64, (7S)-4′-bromo-1′-methylspiro[furo[2,3-f][1,3]benzodioxole-7,3′-indol]-2′(1′H)-one] returned a melting point of 226 to 227 °C. Further, the inhibition at 10 µM in series [1] was > 50%.
For `O=C1Nc2cccc(-c3ccoc3)c2[C@]12COc1cc3c(cc12)OCO3` [Example 16.65, (7S)-4′-furan-3-ylspiro[furo[2,3-f][1,3]benzodioxole-7,3′-indol]-2′(1′H)-one], in that order: 230 to 231 °C and > 50%.
With `O=C1Nc2cccc(-c3ccoc3)c2[C@@]12COc1cc3c(cc12)OCO3` [Example 16.66, (7R)-4′-furan-3-ylspiro[furo[2,3-f][1,3]benzodioxole-7,3′-indol]-2′(1′H)-one], the melting point lay in the range of 229 to 231 °C. The inhibition at 10 µM in series [1] is > 50%.
`CN1C(=O)C2(COc3cc4c(cc32)OCCO4)c2c(-c3cc[nH]n3)cccc21` (centres unmarked) [Example 16.67, 1′-methyl-4′-(1H-pyrazol-3-yl)-2,3-dihydrospiro[furo[2,3-g][1,4]benzodioxine-8,3′-indol]-2′(1′H)-one] yielded a melting point of 201 to 202 °C. Further, in series [1], the inhibition at 10 µM was > 50%.
`CN1C(=O)C2(COc3cc4c(cc32)OCCO4)c2c(-c3ccoc3)cccc21` (centres unmarked) [Example 16.68, 4′-furan-3-yl-1′-methyl-2,3-dihydrospiro[furo[2,3-g][1,4]benzodioxine-8,3′-indol]-2′(1′H)-one] showed a melting point of 178 to 180 °C. Besides, in series [1], the inhibition at 10 µM was > 50%.
Taken in the same sequence, the figures for `CN1C(=O)C2(COc3cc4c(cc32)OCCO4)c2c(-c3cn[nH]c3)cccc21` (centres unmarked) [Example 16.69, 1′-methyl-4′-(1H-pyrazol-4-yl)-2,3-dihydrospiro[furo[2,3-g][1,4]benzodioxine-8,3′-indol]-2′(1′H)-one] were 250 to 251 °C and < 50%.
Taken in the same sequence, the figures for `CN1C(=O)C2(COc3cc4c(cc32)OCCO4)c2c(-c3cnn(C)c3)cccc21` (centres unmarked) [Example 16.70, 1′-methyl-4′-(1-methyl-1H-pyrazol-4-yl)-2,3-dihydrospiro[furo[2,3-g][1,4]benzodioxine-8,3′-indol]-2′(1′H)-one] were 220 to 222 °C and < 50%.
For `CN1C(=O)C2(COc3cc4c(cc32)OCCO4)c2c(C#N)cccc21` (centres unmarked) [Example 16.71, 1′-methyl-2′-oxo-1′,2,2′,3-tetrahydrospiro[furo[2,3-g][1,4]benzodioxine-8,3′-indole]-4′-carbonitrile], in that order: 196 to 197 °C and < 50%.
Compound `CN1C(=O)C2(COc3cc4c(cc32)OCO4)c2c(C3CCOC3)cccc21` (centres unmarked) [Example 16.73, 1′-methyl-4′-(tetrahydrofuran-3-yl)spiro[furo[2,3-f][1,3]benzodioxole-7,3′-indol]-2′(1′H)-one] came in with a melting point of 182 to 184 °C. In addition, in series [1], the inhibition at 10 µM was > 50%.
Consider `Cc1nc(-c2cccc3c2C2(COc4cc5c(cc42)OCCO5)C(=O)N3C)no1` (centres unmarked) [Example 16.74, 1′-methyl-4′-(5-methyl-1,2,4-oxadiazol-3-yl)-2,3-dihydrospiro[furo[2,3-g][1,4]benzodioxine-8,3′-indol]-2′(1′H)-one], for which the melting point was in the range of 199 to 201 °C. Moreover, the inhibition at 10 µM in series [1] is < 50%.
For `Cc1noc(C)c1-c1cccc2c1C1(COc3cc4c(cc31)OCCO4)C(=O)N2C` (centres unmarked) [Example 16.75, 4′-(3,5-dimethylisoxazol-4-yl)-1′-methyl-2,3-dihydrospiro[furo[2,3-g][1,4]benzodioxine-8,3′-indol]-2′(1′H)-one], in that order: 228 to 230 °C and > 50%.
